Assay results from patent publication US20130289014A1, “Combination therapy in treatment of oncological and fibrotic diseases” (BOEHRINGER INGELHEIM INTERNATIONAL GMBH, priority 2010, published 2013).
Each block holds one molecule with its values, some of them ahead of it.

What was measured:
[1] = tested on: Calu-6 xenografts (human NSCLC tumor cell line); assay: Calu-6 NSCLC subcutaneous xenograft, single agents and combination; assay type: in vivo, mice; conditions: Calu-6, d40; large tumors, ca. 350 mm^3 at start of treatment
Protocol: In order to analyse the anti-tumor effects of combining the inhibition of tumor angiogenesis by interfering with the VEGFR signalling cascade with the antitumor activity of inhibiting Aurora kinase B, the following in vivo experiment is performed. Nude mice carrying established subcutaneous Calu-6 xenografts (human NSCLC tumor cell line) are randomized and treated with either the Aurora B kinase inhibitor of this invention Compound X or BIBF 1120 alone or with the combination of both drugs. After termination of treatment the tumors on the control treated mice (black line with circles in FIG. 1) are in average about 1100 mm^3 in volume.
FIG. 1: Calu-6 NSCLC model, combination BIBF 1120+Compound X, schedule (cf. Drawings; control group: line with circles; BIBF 1120 treated group: line with rhombs; Compound X (AKI) treated group: line with triangles; Combo BIBF 1120+Compound X (AKI) treated group: line with squares).

Aurora C kinase = target: T1, Aurora C kinase (Homo sapiens, UniProt Q9UQB9); assay: Enzymatic kinase assay, Aurora C; assay type: biochemical
T1 sequence (Q9UQB9 1-309): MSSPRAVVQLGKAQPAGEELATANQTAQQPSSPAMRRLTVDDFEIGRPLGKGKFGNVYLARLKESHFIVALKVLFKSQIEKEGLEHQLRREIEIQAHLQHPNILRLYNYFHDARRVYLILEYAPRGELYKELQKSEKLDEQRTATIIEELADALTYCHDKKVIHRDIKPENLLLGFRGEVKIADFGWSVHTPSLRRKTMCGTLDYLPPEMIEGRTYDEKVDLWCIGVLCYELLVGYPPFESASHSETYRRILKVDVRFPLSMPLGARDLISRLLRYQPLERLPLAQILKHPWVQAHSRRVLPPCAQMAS
Protocol: (§1) Compound X was profiled in enzymatic kinase assays as well as in proliferation assays on various human cancer cell lines. Cell cycle status was assessed by DNA content analysis (Cellomics ArrayScan, FACScalibur). Histone H3 phosphorylation was determined by immunofluorescence (Cellomics ArrayScan). Apoptosis was detected by Western blotting for cleaved PARP and microscopic enumeration of DAPI-stained cells showing nuclear fragmentation. Senescent cells were identified by staining for SA-β-Gal activity.

Aurora A kinase = target: T2, Aurora A kinase (Homo sapiens, UniProt O14965); assay: Enzymatic kinase assay, Aurora A; assay type: biochemical
T2 sequence (O14965 1-403): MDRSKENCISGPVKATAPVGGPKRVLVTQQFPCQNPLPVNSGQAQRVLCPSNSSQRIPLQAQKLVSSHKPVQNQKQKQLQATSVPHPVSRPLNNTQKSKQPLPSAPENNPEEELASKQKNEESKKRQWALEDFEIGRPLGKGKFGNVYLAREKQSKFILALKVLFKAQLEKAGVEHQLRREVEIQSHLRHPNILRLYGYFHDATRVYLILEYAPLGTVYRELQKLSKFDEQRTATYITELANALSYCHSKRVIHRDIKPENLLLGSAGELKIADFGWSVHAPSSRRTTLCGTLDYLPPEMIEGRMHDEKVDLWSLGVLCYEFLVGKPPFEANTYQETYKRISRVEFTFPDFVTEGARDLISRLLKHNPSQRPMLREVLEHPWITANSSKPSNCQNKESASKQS
Protocol: as §1

human Aurora B kinase = human Aurora B kinase (Homo sapiens, UniProt Q96GD4); assay: Enzymatic kinase assay, Aurora B; assay type: biochemical
Protocol: as §1

NCI-H460 cells [2] = assay: Apoptosis: cleaved PARP Western blot and nuclear fragmentation of DAPI-stained cells; assay type: cell-based, human; conditions: NCI-H460, after 72 h and 96 h of treatment
Protocol: as §1

MV-4; 11 = assay: AML cancer model MV-4;11; assay type: in vivo; conditions: MV-4;11 AML model
[3] = tested on: BxPC-3 pancreas adenocarcinoma; assay: BxPC-3 pancreas adenocarcinoma subcutaneous xenograft; assay type: in vivo, mice; conditions: for T/C: BxPC-3
Protocol: (§2) BomTac:NMRI-Foxn1^nu mice were grafted subcutaneously with NCI-H460 non-small cell lung carcinoma (mutant KRAS, wild-type p53), HCT 116 colon carcinoma (mutant KRAS, wild-type p53) or BxPC-3 pancreas adenocarcinoma cells (wild-type KRAS, mutant p53). Treatment was initiated when the tumors had reached a volume of ˜50 mm^3. BI 811283 was injected intravenously once or twice weekly as a single bolus or b.i.d. Alternatively, the compound was administered once-weekly by a continuous 24 h infusion via subcutaneously implanted osmotic mini-pumps. Multiple dose levels and dosing schedules were evaluated.

[4] = tested on: NCI-H460 non-small cell lung carcinoma; assay: NCI-H460 non-small cell lung carcinoma subcutaneous xenograft; assay type: in vivo, mice; conditions: for T/C: NCI-H460
Protocol: as §2

THP-1 = assay: AML cancer model THP-1; assay type: in vivo; conditions: THP-1 AML model
NCI-H460 cells [5] = assay: Cell cycle status by DNA content analysis (polyploidy); assay type: cell-based, human; conditions: NCI-H460, within 48 h of treatment; increased from <5%
Protocol: as §1

[6] = tested on: histone H3 phosphorylation in NCI-H460 cells; assay: Histone H3 phosphorylation by immunofluorescence (Cellomics ArrayScan); assay type: cell-based, human
Protocol: as §1

[7] = tested on: 46 additional kinases representative of the human kinome; assay: Panel of 46 additional kinases; assay type: biochemical; conditions: Compound at 1000 nM
Protocol: as §1

HCT 116 colon carcinoma = HCT 116 colon carcinoma subcutaneous xenograft; assay type: in vivo, mice; conditions: for T/C: HCT 116
Protocol: as §2

NCI-H460 cells [8] = assay: Senescence by SA-β-Gal staining; assay type: cell-based, human; conditions: NCI-H460, within 96 h; from <3%
Protocol: as §1

human cancer cell lines = assay: Proliferation assays on human cancer cell lines; assay type: cell-based; conditions: >20 human cancer cell lines; read-out: EC50 for inhibition of proliferation
Protocol: as §1

[9] = 15 BID mg/kg, weekly dose 60 mg/kg, (qdx2)x6, i.v.

human Aurora B kinase, sequence (Q96GD4 whole entry): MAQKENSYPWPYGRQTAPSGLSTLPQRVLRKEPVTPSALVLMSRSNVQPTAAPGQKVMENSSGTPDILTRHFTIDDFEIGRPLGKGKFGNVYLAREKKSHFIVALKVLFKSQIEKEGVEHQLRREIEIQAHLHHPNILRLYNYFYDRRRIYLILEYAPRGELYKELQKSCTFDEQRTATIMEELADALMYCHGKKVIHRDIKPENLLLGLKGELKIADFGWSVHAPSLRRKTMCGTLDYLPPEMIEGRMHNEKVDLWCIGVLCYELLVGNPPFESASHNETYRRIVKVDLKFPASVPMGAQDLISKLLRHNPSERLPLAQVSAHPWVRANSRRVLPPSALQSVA

SMILES: COC(=O)c1ccc2c(c1)NC(=O)/C2=C(\Nc1ccc(N(C)C(=O)CN2CCN(C)CC2)cc1)c1ccccc1 [BIBF 1120, 3-Z-[1-(4-(N-((4-methyl-piperazin-1-yl)-methylcarbonyl)-N-methyl-amino)-anilino)-1-phenyl-methylene]-6-methoxycarbonyl-2-indolinone]
median T/C value [1]: 50%

IC50 (Aurora C kinase): 17 nM
IC50 (Aurora A kinase): 70 nM
IC50 (human Aurora B kinase): 9 nM
EC50 (human cancer cell lines): 2 to 14 nM
SMILES: CC(C)NC(=O)[C@H]1CCC[C@H]1Nc1nc(Nc2ccc(C(=O)N(C)C3CCN(C)CC3)cc2)ncc1C(F)(F)F [Compound X]
cleaved poly (ADP-ribose) polymerase (NCI-H460 cells [2]): An increase of cleaved poly (ADP-ribose) polymerase
fraction of cells with nuclear fragmentation (NCI-H460 cells [2]; from <1%): 7%
T/C value (MV-4; 11): 5%
T/C ([3]; 20 mg/kg, weekly dose 20 mg/kg, (q7d)x4, 24 h cont. inf.): 6%
T/C [3, 9]: 17%
effect on tumor growth ([3]; pancreas carcinoma model, multiple cycles, total weekly doses of 20 to 75 mg/kg): dose-dependent inhibition of tumor growth or tumor regression
T/C ([4]; 20 mg/kg, weekly dose 20 mg/kg, (q7d)x3, 24 h cont. inf.): 8%
T/C ([4]; 15 BID mg/kg, weekly dose 60 mg/kg, (qdx2)x3, i.v.): 27%
effect on tumor growth ([4]; non-small cell lung cancer model, multiple cycles, total weekly doses of 20 to 75 mg/kg): dose-dependent inhibition of tumor growth or tumor regression
T/C value (THP-1): 7%
fraction of polyploid cells (NCI-H460 cells [5]): > 80%
median T/C value [1]: 45%
time to inhibition of histone H3 phosphorylation [6]: < 1 h
kinases inhibited by more than 50% [7]: 7/46
effect on large tumors (HCT 116 colon carcinoma; HCT 116, large tumors (350 mm^3)): regression of large tumors (350 mm^3) was induced
T/C (HCT 116 colon carcinoma; 20 mg/kg, weekly dose 20 mg/kg, (q7d)x5, 24 h cont. inf.): 2%
T/C (HCT 116 colon carcinoma; 30 mg/kg, weekly dose 60 mg/kg, (qdx2)x6, i.v.): 25%
T/C (HCT 116 colon carcinoma; [9]): 4%
T/C (HCT 116 colon carcinoma; 37.5 BID mg/kg, weekly dose 75 mg/kg, (q7d)x6, i.v.): 8%
histological examination of tumors (HCT 116 colon carcinoma; HCT 116 tumors): accumulation of enlarged, multinucleated cells
phosphorylation of histone H3 in tumors (biomarker analysis) (HCT 116 colon carcinoma; HCT 116 tumors, therapeutic doses): inhibited phosphorylation of histone H3
effect on tumor growth (HCT 116 colon carcinoma; colon carcinoma model, multiple cycles, total weekly doses of 20 to 75 mg/kg): dose-dependent inhibition of tumor growth or tumor regression
senescent cells, fraction of the population (NCI-H460 cells [8]): 25%
